Test results reported in PubChem BioAssay (NCI).
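Protocol summary: plate cells (96-well), add compound at 5 concentrations, incubate 48 h, interpolate endpoints linearly. GI50 marks 50% less growth. TGI marks complete inhibition of growth.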

Legend:
Test in all cases: NCI-60 cell line screen, 48 h
[1] = tested on: SF-539 CNS
[2] = tested on: ACHN renal
[3] = tested on: OVCAR-5 ovarian
[4] = tested on: OVCAR-3 ovarian
[5] = tested on: SW-620 colon
[6] = tested on: UO-31 renal
[7] = tested on: CCRF-CEM leukemia
[8] = tested on: SK-MEL-5 melanoma
[9] = tested on: SR leukemia
[10] = tested on: IGROV1 ovarian
[11] = tested on: U251 CNS
[12] = tested on: PC-3 prostate
[13] = tested on: 786-0 renal
[14] = tested on: KM12 colon
[15] = tested on: A498 renal
[16] = tested on: HS 578T breast
[17] = tested on: NCI-H522 lung
[18] = tested on: DU-145 prostate
[19] = tested on: LOX IMVI melanoma
[20] = tested on: OVCAR-8 ovarian
[21] = tested on: CAKI-1 renal
[22] = tested on: TK-10 renal
[23] = tested on: MALME-3M melanoma
[24] = tested on: UACC-62 melanoma
[25] = tested on: HOP-92 NSCLC
[26] = tested on: M14 melanoma
[27] = tested on: NCI-H23 lung
[28] = tested on: MCF7 breast
[29] = tested on: SNB-19 CNS
[30] = tested on: RXF 393 renal
[31] = tested on: MOLT-4 leukemia
[32] = tested on: COLO 205 colon
[33] = tested on: SK-MEL-2 melanoma
[34] = tested on: HL-60(TB) leukemia
[35] = tested on: T-47D breast
[36] = tested on: NCI/ADR-RES ovarian
[37] = tested on: OVCAR-4 ovarian
[38] = tested on: NCI-H226 lung
[39] = tested on: HCC-2998 colon
[40] = tested on: SN12C renal
[41] = tested on: NCI-H460 lung
[42] = tested on: RPMI-8226 leukemia
[43] = tested on: HT29 colon
[44] = tested on: A549 NSCLC
[45] = tested on: K-562 leukemia
[46] = tested on: UACC-257 melanoma
[47] = tested on: HCT-15 colon
[48] = tested on: SF-295 CNS
[49] = tested on: MDA-MB-231 breast
[50] = tested on: MDA-MB-435
[51] = tested on: HCT-116 colon
[52] = tested on: EKVX NSCLC
[53] = tested on: SNB-75 CNS
[54] = tested on: SK-MEL-28 melanoma
[55] = tested on: HOP-62 NSCLC
[56] = tested on: BT-549 breast
[57] = tested on: SK-OV-3 ovarian
[58] = tested on: SF-268 CNS

## CN1CCC(n2cc(Nc3ncc4c(=O)n(-c5c(Cl)cccc5Cl)cc(Br)c4n3)cn2)CC1
[1]
  GI50: 33.7 nM
  TGI: 166 nM
[2]
  GI50: 40.2 nM
  TGI: 11.9 µM
[3]
  GI50: 1360 nM
  TGI: 12.3 µM
[4]
  GI50: 223 nM
  TGI: 3.47 µM
[5]
  GI50: 1200 nM
  TGI: 11.8 µM
[6]
  GI50: 70.8 nM
  TGI: 11.5 µM
[7]
  GI50: 75 nM
  TGI: 6.36 µM
[8]
  GI50: 419 nM
  TGI: 17.5 µM
[9]
  GI50: 42.5 nM
  TGI: 1610 nM
[10]
  GI50: 110 nM
  TGI: 7.32 µM
[11]
  GI50: 787 nM
  TGI: 11.2 µM
[12]
  GI50: 1720 nM
  TGI: 16.4 µM
[13]
  GI50: 241 nM
  TGI: 8.32 µM
[14]
  GI50: 551 nM
  TGI: 16.3 µM
[15]
  GI50: 62.8 nM
  TGI: 3.19 µM
[16]
  GI50: 538 nM
  TGI: 16.1 µM
[17]
  GI50: 424 nM
  TGI: 2650 nM
[18]
  GI50: 1300 nM
  TGI: 14.8 µM
[19]
  GI50: 480 nM
  TGI: 2920 nM
[20]
  GI50: 268 nM
  TGI: 5.02 µM
[21]
  GI50: 98.4 nM
  TGI: 11.5 µM
[22]
  GI50: 178 nM
  TGI: 17.4 µM
[23]
  GI50: 796 nM
  TGI: 18.1 µM
[24]
  GI50: 901 nM
  TGI: 22 µM
[25]
  GI50: 102 nM
  TGI: 3.73 µM
[26]
  GI50: 65 nM
  TGI: 13.4 µM
[27]
  GI50: 65.1 nM
  TGI: 594 nM
[28]
  GI50: 181 nM
  TGI: 7.25 µM
[29]
  GI50: 693 nM
  TGI: 13.6 µM
[30]
  GI50: 80.8 nM
  TGI: 585 nM
[31]
  GI50: 64.6 nM
  TGI: 4.26 µM
[32]
  GI50: 1140 nM
  TGI: 8.53 µM
[33]
  GI50: 192 nM
  TGI: 1730 nM
[34]
  GI50: 160 nM
  TGI: 853 nM
[35]
  GI50: 887 nM
  TGI: 15.5 µM
[36]
  GI50: 288 nM
  TGI: 15.3 µM
[37]
  GI50: 627 nM
  TGI: 11.3 µM
[38]
  GI50: 1290 nM
  TGI: 11.4 µM
[39]
  GI50: 740 nM
  TGI: 12.5 µM
[40]
  GI50: 235 nM
  TGI: 11.4 µM
[41]
  GI50: 1350 nM
  TGI: 8.91 µM
[42]
  GI50: 1150 nM
  TGI: 10.3 µM
[43]
  GI50: 142 nM
  TGI: 2620 nM
[44]
  GI50: 2320 nM
  TGI: 11.5 µM
[45]
  GI50: 178 nM
  TGI: 12.5 µM
[46]
  GI50: 1270 nM
  TGI: 9.28 µM
[47]
  GI50: 368 nM
  TGI: 11.3 µM
[48]
  GI50: 939 nM
  TGI: 15.5 µM
[49]
  GI50: 821 nM
  TGI: 13.4 µM
[50]
  GI50: 148 nM
  TGI: 10.3 µM
[51]
  GI50: 585 nM
  TGI: 10.4 µM
[52]
  GI50: 2770 nM
  TGI: 18 µM
[53]
  GI50: 611 nM
  TGI: 11.3 µM
[54]
  GI50: 4.1 µM
  TGI: 18.9 µM
[55]
  GI50: 846 nM
  TGI: 13.3 µM
[56]
  GI50: 399 nM
  TGI: 4.64 µM
[57]
  GI50: 275 nM
  TGI: 13.9 µM
[58]
  GI50: 2160 nM
  TGI: 16.5 µM
